Assay results taken from patent US20100003217A1, “Compounds and Pharmaceutical Compositions for the Treatment of Viral Infections” (priority 2008, published 2010).
Read-outs that look alike come from different tables or passages of the source.

Experiment: Metabolite profile in rat liver
Type: in vivo, male Sprague-Dawley rats
Conditions: for Percent of Dose, Liver 24 h: after [14C]Compound 1; for concentration at 2 h / concentration at 6 h / concentration at 24 h: male, Sprague-Dawley, rat, liver
Experimental: Homogenates were prepared on dry ice in 70% methanol-30% water containing 20 mM EDTA and 20 mM EGTA (about 1× (w/v) weight of the liver) and were stored frozen. Pooled liver samples were prepared for all groups by combining a fixed percentage of the total weight of each individual animal sample homogenate for each group. Each pooled liver homogenate (3.77-5.02 g) was placed in a 50-mL polypropylene centrifuge tube and 16.0 mL of methanol:water (70:30) was added. The sample was vortexed for one minute, and then centrifuged at 11200×g for 20 minutes. The supernatant was transferred to a tube and total volume was measured. The extraction procedure was repeated three additional times. Radioactivity of each supernatant was determined by LSC of duplicate aliquots (100 μL each) for extraction recovery. Subsamples of all four extracts from each sample were taken for proportionate pooling. For Group 1, the subsamples were pooled before concentration and, for Group 2, each subsample was concentrated separately and then pooled due to the larger volumes involved. Each extract was completely dried or reduced to approximately 100 μL. Reconstitution was accomplished with methanol (20 μL) and sufficient volume of the aqueous mobile phase of HPLC method 2 such that the total volume of each reconstituted sample was 500 μL. Duplicate aliquots of the reconstituted samples were analyzed by LSC. Each sample was analyzed by HPLC method 2.
Percent of the administered dose (% AD) for parent drug and each metabolite at each collection period=(% of the total radioactivity in the sample attributed to the metabolite)*(total radioactivity expressed as % of the administered dose, recovered during the corresponding collection period).
Microgram equivalents/g for parent drug or metabolite at each collection period (% radioactivity for each metabolite)*(total μg equivalents/g during the corresponding collection period).
Liver homogenates were pooled for each time point for both dose groups by proportional mixing according to the weight of the samples from individual animals. The pooled samples were extracted and prepared for HPLC analysis as described above. The abundance of metabolites was determined as a % of the administered dose and as μg equivalent/g. The data are presented in Table 54, Table 55, Table 56 and Table 57, respectively. Metabolites R^1, R^8 and R^9 were characterized based on retention time.

[1] = group 1 (IV dose) pooled liver, 2 h
[2] = group 1 (IV dose) pooled liver, 2 h (Table 56)
[3] = group 1 (IV dose) pooled liver, 6 h
[4] = group 1 (IV dose) pooled liver, 6 h (Table 56)
[5] = group 1 (IV dose) pooled liver, 24 h
[6] = group 2 (PO dose) pooled liver, 2 h
[7] = group 2 (PO dose) pooled liver, 6 h
[8] = group 2 (PO dose) pooled liver, 24 h
[9] = iv, 50 mg/kg, group 1 (IV dose) pooled liver, 2 h, read-out: liver concentration as μg equivalents/g
[10] = iv, 50 mg/kg, group 1 (IV dose) pooled liver, 6 h, read-out: liver concentration as μg equivalents/g
[11] = rat liver, IV dose, 2 h (Group 1A)
[12] = rat liver, IV dose, 6 h (Group 1B)

SMILES: C[C@@]1(O)[C@H](O)[C@@H](COP(=O)(O)OP(=O)(O)O)O[C@H]1n1cnc2c(=O)[nH]c(N)nc21 [Compound 6, [(2R)-2-methyl-β-D-ribofuranosyl]guanine 5′-diphosphate]
- Percent of Dose, Liver 24 h (IV): 0.29% of Dose
- Percent of Dose, Liver 24 h (Oral): 0.08% of Dose
- % AD [1]: 3.35 % AD
- % HPLC (percent of HPLC peak area in the sample extract) [1]: 21.6%
- % HPLC (percent of HPLC peak area in the sample extract) [2]: 21.6%
- % AD [3]: 2.04 % AD
- % HPLC (percent of HPLC peak area in the sample extract) [3]: 20.1%
- % HPLC (percent of HPLC peak area in the sample extract) [4]: 20.1%
- % AD [5]: 0.29 % AD
- % HPLC (percent of HPLC peak area in the sample extract) [5]: 16.2%
- % HPLC (percent of HPLC peak area in the sample extract) (group 1 (IV dose) pooled liver, 24 h (Table 56)): 16.2%
- % AD [6]: 0.04 % AD
- % HPLC (percent of HPLC peak area in the sample extract) [6]: 22.6%
- % HPLC (percent of HPLC peak area in the sample extract) (group 2 (PO dose) pooled liver, 2 h (Table 57)): 22.6%
- % AD [7]: 0.06 % AD
- % HPLC (percent of HPLC peak area in the sample extract) [7]: 15.0%
- % HPLC (percent of HPLC peak area in the sample extract) (group 2 (PO dose) pooled liver, 6 h (Table 57)): 15.0%
- % AD [8]: 0.08 % AD
- % HPLC (percent of HPLC peak area in the sample extract) [8]: 46.1%
- % HPLC (percent of HPLC peak area in the sample extract) (group 2 (PO dose) pooled liver, 24 h (Table 57)): 46.1%
- concentration at 2 h [9]: 44400 ng/g
- concentration at 6 h [10]: 27500 ng/g
- concentration at 24 h (iv, 50 mg/kg, group 1 (IV dose) pooled liver, 24 h, read-out: liver concentration as μg equivalents/g): 3770 ng/g
- concentration at 2 h (po, 100 mg/kg, group 2 (PO dose) pooled liver, 2 h, read-out: liver concentration as μg equivalents/g): 1150 ng/g
- concentration at 6 h (po, 100 mg/kg, group 2 (PO dose) pooled liver, 6 h, read-out: liver concentration as μg equivalents/g): 1550 ng/g
- concentration at 24 h (po, 100 mg/kg, group 2 (PO dose) pooled liver, 24 h, read-out: liver concentration as μg equivalents/g): 1880 ng/g
- concentration at 2 h (po, 100 mg/kg, rat liver, PO dose, 2 h, read-out: liver metabolite concentration): 1100 ng/g
- concentration at 6 h (po, 100 mg/kg, rat liver, PO dose, 6 h, read-out: liver metabolite concentration): 1600 ng/g
- concentration at 24 h (po, 100 mg/kg, rat liver, PO dose, 24 h, read-out: liver metabolite concentration): 1900 ng/g
- % of the total radioactivity in liver (rat liver, IV dose, 2, 6 and 24 h): 16-22%
- liver metabolite, % of the administered dose [11]: 3.4 % AD
- liver metabolite, % of the administered dose [12]: 2.0 % AD
- liver metabolite, % of the administered dose (rat liver, IV dose, 24 h): 0.29 % AD
- liver metabolite, % of the administered dose (rat liver, IV dose, 24 h, listed as diphosphate): 0.3 % AD
- % of the total radioactivity in liver (rat liver, PO dose, 2, 6 and 24 h): 15-46%
- liver metabolite, % of the administered dose (rat liver, PO dose, 2 h): 0.04 % AD
- liver metabolite, % of the administered dose (rat liver, PO dose, 6 h): 0.06 % AD
- liver metabolite, % of the administered dose (rat liver, PO dose, 24 h): 0.08 % AD

SMILES: C[C@@]1(O)[C@H](O)[C@@H](COP(=O)(O)OP(=O)(O)OP(=O)(O)O)O[C@H]1n1cnc2c(=O)[nH]c(N)nc21 [Compound 7, [(2R)-2-methyl-β-D-ribofuranosyl]guanine 5′-triphosphate]
- % AD [1]: 0.05 % AD
- % HPLC (percent of HPLC peak area in the sample extract) [1]: 0.29%
- % HPLC (percent of HPLC peak area in the sample extract) [2]: 0.29%
- % AD [3]: 0.04 % AD
- % HPLC (percent of HPLC peak area in the sample extract) [3]: 0.35%
- % HPLC (percent of HPLC peak area in the sample extract) [4]: 0.35%
- concentration at 2 h [9]: 600 ng/g
- concentration at 6 h [10]: 480 ng/g
- concentration at 2 h (iv, 50 mg/kg, rat liver, IV dose, 2 h (Group 1A), read-out: liver metabolite concentration): 600 ng/g
- concentration at 6 h (iv, 50 mg/kg, rat liver, IV dose, 6 h (Group 1B), read-out: liver metabolite concentration): 480 ng/g
- liver metabolite, % of the administered dose [11]: 0.05 % AD
- liver metabolite, % of the administered dose [12]: 0.04 % AD
